Consider six compounds from patent publication US8802597B2, “Herbicidal pyrimidines” (E I du Pont de Nemours and Company, priority 2003, dated 2014).

Structures are written as SMILES. Where two headings read alike, the source gives them in different places.

What all share (assay): Test C pre/postemergence
Common to all, as to assay type: in vivo

For assay [1], the system named is soybean (Glycine max). The essentials: (§1)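 Applications: preemergence onto seeded soil and postemergence onto 1- to 4-leaf seedlings, compound carried in non-phytotoxic solvent plus surfactant. Kept in greenhouse 12 to 14 days. Scored visually relative to untreated controls, 0 (no effect) to 100 (complete control).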
Assay [2] concerns crabgrass (Digitaria sanguinalis). Put shortly: as §1
Assay [3] relates to yellow nutsedge (Cyperus esculentus). The essentials:
as §1

The mark [4] stands for this setting: Postemergence, 125 g ai/ha, scale 0 to 100 (0 no effect, 100 complete control).
Where [5] appears, read: Postemergence, 62 g ai/ha, scale 0 to 100 (0 no effect, 100 complete control).
[6] abbreviates: Preemergence, 125 g ai/ha, scale 0 to 100.
Setting [7] is: Preemergence, 16 g ai/ha, scale 0 to 100, 0 no effect, 100 complete control.
Where [8] appears, read: Preemergence, 31 g ai/ha, scale 0 to 100, 0 no effect, 100 complete control.
The mark [9] stands for this setting: Preemergence, 62 g ai/ha, scale 0 to 100, 0 no effect, 100 complete control.
The mark [10] stands for this setting: Glycine max, post-emergence, Postemergence, 31 g ai/ha, read-out: Plant response rating (scale of 0 to 100), Soybean.
[11] abbreviates: Glycine max, post-emergence, Postemergence, 62 g ai/ha, scale 0 to 100 (0 no effect, 100 complete control), read-out: Soybean plant response rating.
Where [12] appears, read: Glycine max, post-emergence, Postemergence, 125 g ai/ha, scale 0 to 100 (0 no effect, 100 complete control), read-out: Soybean plant response rating.
The mark [13] stands for this setting: Digitaria sanguinalis, post-emergence, Postemergence, 31 g ai/ha, read-out: Plant response rating (scale of 0 to 100), Crabgrass.
Where [14] appears, read: Digitaria sanguinalis, post-emergence, Postemergence, 62 g ai/ha, scale 0 to 100 (0 no effect, 100 complete control), read-out: Crabgrass plant response rating.
Where [15] appears, read: Digitaria sanguinalis, post-emergence, Postemergence, 125 g ai/ha, scale 0 to 100 (0 no effect, 100 complete control), read-out: Crabgrass plant response rating.
Where [16] appears, read: Cyperus, post-emergence, Postemergence, 31 g ai/ha, read-out: Plant response rating (scale of 0 to 100), Nutsedge, Yellow.
[17] abbreviates: Cyperus, post-emergence, Postemergence, 62 g ai/ha, scale 0 to 100 (0 no effect, 100 complete control), read-out: Nutsedge, Yellow plant response rating.
Where [18] appears, read: Cyperus, post-emergence, Postemergence, 125 g ai/ha, scale 0 to 100 (0 no effect, 100 complete control), read-out: Nutsedge, Yellow plant response rating.

On to `CCOC(=O)c1nc(-c2ccc(I)cc2)nc(N)c1Cl` [Compound 133], for which the “Plant response rating (scale of 0 to 100), Soybean” value in assay [1] (Postemergence, 16 g ai/ha) was 95; in assay [1] (Postemergence, 31 g ai/ha) it was 95; in assay [1] (Postemergence, 62 g ai/ha), 100. Further, the “Soybean plant response rating” value in assay [1] (setting [4]) is given as 100. The “Plant response rating (scale of 0 to 100), Crabgrass” value came out at 50 in assay [2] (Postemergence, 16 g ai/ha); 75 in assay [2] (Postemergence, 31 g ai/ha); 75 in assay [2] (Postemergence, 62 g ai/ha). Moreover, the “Crabgrass plant response rating” value in assay [2] (setting [4]) is listed as 80. Also, the “Plant response rating (scale of 0 to 100), Nutsedge, Yellow” value in assay [3] (Postemergence, 16 g ai/ha) is given as 60; in assay [3] (Postemergence, 31 g ai/ha) it was 75; in assay [3] (Postemergence, 62 g ai/ha), 75. Besides, the “Nutsedge, Yellow plant response rating” value in assay [3] (setting [4]) stood at 80.

As to `COCc1nc(C2CC2)nc(N)c1Br` [Compound 11], the “Plant response rating (scale of 0 to 100), Soybean” value came out at 45 in assay [1] (Postemergence, 16 g ai/ha) and 60 in assay [1] (Postemergence, 31 g ai/ha). Also, the entries for the “Soybean plant response rating” value in assay [1] (setting [5]) and in assay [1] (setting [4]) were 80 and 95, respectively. For the same compound, the “Plant response rating, Soybean” value in assay [1] (setting [6]) is reported as 55. Moreover, the “Plant response rating (scale of 0 to 100), Crabgrass” value turned out to be 0 in assay [2] (Postemergence, 16 g ai/ha) and 0 in assay [2] (Postemergence, 31 g ai/ha). In addition, the “Crabgrass plant response rating” value in assay [2] (setting [5]) worked out at 0; in assay [2] (setting [4]) it was 20. Also, the “Plant response rating, Crabgrass” value in assay [2] (setting [7]) came to 0; in assay [2] (setting [8]), 0; in assay [2] (setting [9]), 0; in assay [2] (setting [6]), 60. The “Plant response rating (scale of 0 to 100), Nutsedge, Yellow” value in assay [3] (Postemergence, 16 g ai/ha) is given as 0; in assay [3] (Postemergence, 31 g ai/ha), 0. For the same compound, the “Nutsedge, Yellow plant response rating” value in assay [3] (setting [5]) and in assay [3] (setting [4]) was 0 throughout. Moreover, the “Plant response rating, Nutsedge, Yellow” value in assay [3] (setting [7]), in assay [3] (setting [8]) and in assay [3] (setting [9]) was 0 in each case.

Consider `COC(=O)c1nc(C2CC2)nc(N)c1F` [Compound 25], for which the plant injury at 16 g/ha amounted to 40% in assay [1] (Glycine max, post-emergence, Postemergence, 16 g ai/ha, read-out: Plant response rating (scale of 0 to 100), Soybean) and 30% in assay [1] (Glycine max, pre-emergence, Preemergence, 16 g ai/ha, scale 0 to 100, 0 no effect, 100 complete control, read-out: Plant response rating, Soybean). In addition, the plant injury at 31 g/ha in assay [1] (setting [10]) is 90%. Also, the plant injury at 62 g/ha stood at 90% in assay [1] (setting [11]) and 60% in assay [1] (Glycine max, pre-emergence, Preemergence, 62 g ai/ha, scale 0 to 100, 0 no effect, 100 complete control, read-out: Plant response rating, Soybean). In addition, the plant injury at 125 g/ha in assay [1] (setting [12]) amounted to 90%; in assay [1] (Glycine max, pre-emergence, Preemergence, 125 g ai/ha, scale 0 to 100, read-out: Plant response rating, Soybean), 65%. The pest or weed control at 16 g/ha in assay [2] (Digitaria sanguinalis, post-emergence, Postemergence, 16 g ai/ha, read-out: Plant response rating (scale of 0 to 100), Crabgrass) was found to be 0%; in assay [2] (Digitaria sanguinalis, pre-emergence, Preemergence, 16 g ai/ha, scale 0 to 100, 0 no effect, 100 complete control, read-out: Plant response rating, Crabgrass), 0%; in assay [3] (Cyperus, post-emergence, Postemergence, 16 g ai/ha, read-out: Plant response rating (scale of 0 to 100), Nutsedge, Yellow), 0%; in assay [3] (Cyperus, pre-emergence, Preemergence, 16 g ai/ha, scale 0 to 100, 0 no effect, 100 complete control, read-out: Plant response rating, Nutsedge, Yellow) it was 0%. The pest or weed control at 31 g/ha was found to be 0% in assay [2] (setting [13]); 0% in assay [2] (Digitaria sanguinalis, pre-emergence, Preemergence, 31 g ai/ha, scale 0 to 100, 0 no effect, 100 complete control, read-out: Plant response rating, Crabgrass); 0% in assay [3] (setting [16]); 0% in assay [3] (Cyperus, pre-emergence, Preemergence, 31 g ai/ha, scale 0 to 100, 0 no effect, 100 complete control, read-out: Plant response rating, Nutsedge, Yellow). Moreover, the pest or weed control at 62 g/ha in assay [2] (setting [14]) turned out to be 30%; in assay [2] (Digitaria sanguinalis, pre-emergence, Preemergence, 62 g ai/ha, scale 0 to 100, 0 no effect, 100 complete control, read-out: Plant response rating, Crabgrass), 0%; in assay [3] (setting [17]), 0%; in assay [3] (Cyperus, pre-emergence, Preemergence, 62 g ai/ha, scale 0 to 100, 0 no effect, 100 complete control, read-out: Plant response rating, Nutsedge, Yellow) it was 0%. In addition, the pest or weed control at 125 g/ha in assay [2] (setting [15]) was 50%; in assay [2] (Digitaria sanguinalis, pre-emergence, Preemergence, 125 g ai/ha, scale 0 to 100, read-out: Plant response rating, Crabgrass) it was 0%; in assay [3] (setting [18]), 0%; in assay [3] (Cyperus, pre-emergence, Preemergence, 125 g ai/ha, scale 0 to 100, read-out: Plant response rating, Nutsedge, Yellow), 0%.

Consider `CCOC(=O)C(OC(C)=O)c1nc(C2CC2)nc(N)c1Br` (centres unmarked) [Compound 47], for which the “Plant response rating (scale of 0 to 100), Soybean” value was determined as 20 in assay [1] (Postemergence, 16 g ai/ha) and 40 in assay [1] (Postemergence, 31 g ai/ha). In addition, the “Soybean plant response rating” value in assay [1] (setting [5]) is recorded as 65; in assay [1] (setting [4]), 75. The “Plant response rating, Soybean” value in assay [1] (setting [7]), in assay [1] (setting [8]), in assay [1] (setting [9]) and in assay [1] (setting [6]) was 0 throughout. The “Plant response rating (scale of 0 to 100), Crabgrass” value stood at 0 in assay [2] (Postemergence, 16 g ai/ha) and 0 in assay [2] (Postemergence, 31 g ai/ha). The “Crabgrass plant response rating” value was found to be 0 in assay [2] (setting [5]) and 20 in assay [2] (setting [4]). Further, the “Plant response rating, Crabgrass” value in assay [2] (setting [7]) is reported as 20; in assay [2] (setting [8]) it was 100; in assay [2] (setting [9]) it was 100; in assay [2] (setting [6]), 100. In addition, the “Plant response rating (scale of 0 to 100), Nutsedge, Yellow” value in assay [3] (Postemergence, 16 g ai/ha) was 0; in assay [3] (Postemergence, 31 g ai/ha), 0. The “Nutsedge, Yellow plant response rating” value in assay [3] (setting [5]) and in assay [3] (setting [4]) was 0 each time. In addition, the “Plant response rating, Nutsedge, Yellow” value in assay [3] (setting [7]), in assay [3] (setting [8]), in assay [3] (setting [9]) and in assay [3] (setting [6]) was 0 each time.

On to `CCOC(=O)c1nc(C2CC2)nc(NN)c1Br` [Compound 42], for which the plant injury at 31 g/ha in assay [1] (setting [10]) is 10%. The plant injury at 62 g/ha in assay [1] (setting [11]) amounted to 30%. In assay [1] (setting [12]), the plant injury at 125 g/ha worked out at 40%. Besides, the plant injury at 250 g/ha in assay [1] (Glycine max, post-emergence, Postemergence, 250 g ai/ha, scale 0 to 100, read-out: Plant response rating, Soybean) was determined as 70%. Besides, the pest or weed control at 31 g/ha in assay [2] (setting [13]) and in assay [3] (setting [16]) was 0% each time. Besides, the pest or weed control at 62 g/ha in assay [2] (setting [14]) and in assay [3] (setting [17]) was 0% in each case. Besides, the pest or weed control at 125 g/ha in assay [2] (setting [15]) and in assay [3] (setting [18]) was 0% throughout. The pest or weed control at 250 g/ha stood at 0% in assay [2] (Digitaria sanguinalis, post-emergence, Postemergence, 250 g ai/ha, scale 0 to 100, read-out: Plant response rating, Crabgrass) and 0% in assay [3] (Cyperus, post-emergence, Postemergence, 250 g ai/ha, scale 0 to 100, read-out: Plant response rating, Nutsedge, Yellow).

In the case of `Nc1nc(-c2ccc(Cl)cc2)nc(C(=O)[O-])c1Cl.[Na+]` [Compound 117], the “Plant response rating (scale of 0 to 100), Soybean” value was 100 in assay [1] (Postemergence, 16 g ai/ha); 100 in assay [1] (Postemergence, 31 g ai/ha); 100 in assay [1] (Postemergence, 62 g ai/ha). The “Soybean plant response rating” value in assay [1] (setting [4]) is reported as 100. In addition, the “Plant response rating, Soybean” value in assay [1] (setting [7]) came to 85; in assay [1] (setting [8]), 100; in assay [1] (setting [9]) it was 100. The “Plant response rating (scale of 0 to 100), Crabgrass” value in assay [2] (Postemergence, 16 g ai/ha) turned out to be 85; in assay [2] (Postemergence, 31 g ai/ha) it was 90; in assay [2] (Postemergence, 62 g ai/ha), 90. Further, the “Crabgrass plant response rating” value in assay [2] (setting [4]) is listed as 90. Besides, the “Plant response rating, Crabgrass” value amounted to 0 in assay [2] (setting [7]), 0 in assay [2] (setting [8]), 0 in assay [2] (setting [9]) and 60 in assay [2] (setting [6]). Moreover, the “Plant response rating (scale of 0 to 100), Nutsedge, Yellow” value in assay [3] (Postemergence, 16 g ai/ha) came to 5; in assay [3] (Postemergence, 31 g ai/ha) it was 50; in assay [3] (Postemergence, 62 g ai/ha), 50. For the same compound, in assay [3] (setting [4]), the “Nutsedge, Yellow plant response rating” value is given as 60. Also, the “Plant response rating, Nutsedge, Yellow” value is on record as 0 in assay [3] (setting [7]), 0 in assay [3] (setting [8]) and 50 in assay [3] (setting [9]).
